From patent publication US20210283139A1, “BIFUNCTIONAL MOLECULES FOR TARGETING UCHL5” (AMPHISTA THERAPEUTICS LTD, priority 2018, published 2021)

Tests used:
Format in all cases: cell-based
Brd2 = Brd2 (Homo sapiens, UniProt P25440); assay: Concentration-dependent BET degradation, immunoblot, HeLa cells; parameters: endogenous in cells; host or cells: HeLa; details: Brd2, 6 h treatment, 1 nM-10 μM; for Dmax: read-out: Dmax (%) maximum degradation observed
Protocol: (§1) Cell culture. HeLa (CCL-2) and HEK293 (CRL-1573) cells were purchased from ATCC and cultured in DMEM medium (Gibco) supplemented with 10% FBS, 100 μg/mL penicillin/streptomycin and L-glutamine. Cells were grown at 37° C. and 5% CO2, and were kept no longer than 30 passages. All cell lines were routinely tested for mycoplasma contamination using MycoAlert kit from Lonza.
(§2) Immunoblotting. proteins were separated by SDS-PAGE on NuPage 4-12% Bis-Tris gels, followed by transfer to Amersham Protran 0.45 NC nitrocellulose membrane (GE Healthcare) using wet transfer. Membranes were blocked using 5% w/v milk in Tris-buffered saline (TBS) with 0.1% Tween-20. Blots were probed (overnight at 4° C.) using anti-Brd2 (Abcam ab139690, 1:2,000 dilution), anti-Brd3 (Abcam ab50818, 1:500 dilution), and anti-Brd4 (Abcam ab128874, 1:1,000 dilution) primary antibodies, as appropriate. The next day, blots were washed with TBST and incubated (1 hr at RT) with anti-Tubulin hFAB-rhodamine (BioRad, 12004166) primary antibody, and either anti-rabbit IRDye 800CW (Licor 1:10,000 dilution) or anti-mouse IRDye 800CW (Licor 1:10,000 dilution) secondary antibody. Blots were developed using a Bio-Rad ChemiDoc MP Imaging System, and band quantification was performed using Image Studio software (LiCor). Band intensities were normalized to the tubulin loading control and reported as % of the average 0.1% DMSO vehicle intensity. Degradation data was plotted and analysed using Prism (Graphpad, version 8).
(§3) HeLa (5×10^5) and HEK293 (1×10^6) cells were seeded in standard 6-well plates (2 mL medium) overnight before treatment with compounds at the desired concentration (1 nM-10 μM), with a final DMSO concentration of 0.1% v/v. After 6 h treatment time, cells were washed with DPBS (Gibco) and lysed using 85 μL RIPA buffer (Sigma-Aldrich) supplemented with cOmplete Mini EDTA-free protease inhibitor cocktail (Roche) and benzonase. Lysates were clarified by centrifugation (20,000g, 10 min, 4° C.) and the total protein content of the supernatant was quantified using a Bradford colorimetric assay. Samples were prepared using equal amounts of total protein and LDS sample buffer (Invitrogen.
(§4) Representative blots in FIG. 3 show depletion of Brd2, Brd3 and Brd4 protein levels following treatment with increasing concentrations of representative compounds. Band intensities were normalized to the β-tubulin loading control and reported as % of the average 0.1% DMSO vehicle intensity, with each point representing mean±SEM of two independent experiments (n=2). Degradation data was plotted and analysed using Prism (Graphpad, version 8)

Brd3 = Brd3 (Homo sapiens, UniProt Q15059); assay: as above; parameters: endogenous in cells; host or cells: HeLa; details: Brd3, 6 h treatment, 1 nM-10 μM; for Dmax: read-out: Dmax (%) maximum degradation observed
Protocol: as §1, §2, §3, §4

Brd4 (L) [1] = target: T1, Brd4 (L) (Homo sapiens, UniProt O60885); assay: Time-dependent BET degradation, immunoblot, HEK293 cells; parameters: dose or concentration left out as unconfirmed; details: timecourse 0-8 h
T1 construct: endogenous in cells; host or cells: HEK293, HeLa
Protocol: as §1, §2
as §3, with “(3×10^5)” for “(5×10^5)”, “(0.5×10^6)” for “(1×10^6)”, “1 μM concentration,” for “the desired concentration (1 nM-10 μM),”, “incubation for the desired time (0-8 h),” for “6 h treatment time,”, “(20,000 g,” for “(20,000g,”, “(Invitrogen).” for “(Invitrogen.”
as §4, with “FIG. 4” for “FIG. 3”, “following 1 μM” for “following”, “treatment at various time points” for “treatment”, “with” for “with increasing concentrations of”, “version 8).” for “version 8)”
(§5) T½ (h) is the time required to deplete 50% of the protein relative to DMSO

Brd4 (S) [2] = target: T2, Brd4 (S) (Homo sapiens, UniProt O60885); assay: as above; parameters: dose or concentration left out as unconfirmed; details: timecourse 0-8 h
T2 construct: endogenous in cells; host or cells: HEK293, HeLa
Protocol: as §1, §2
as §3, with “(3×10^5)” for “(5×10^5)”, “(0.5×10^6)” for “(1×10^6)”, “1 μM concentration,” for “the desired concentration (1 nM-10 μM),”, “incubation for the desired time (0-8 h),” for “6 h treatment time,”, “(20,000 g,” for “(20,000g,”, “(Invitrogen).” for “(Invitrogen.”
as §4, with “FIG. 4” for “FIG. 3”, “following 1 μM” for “following”, “treatment at various time points” for “treatment”, “with” for “with increasing concentrations of”, “version 8).” for “version 8)”
as §5

Brd4 (L) [3] = target: T1, Brd4 (L); assay: Concentration-dependent BET degradation, immunoblot, HEK293 cells; details: 6 h treatment, 1 nM-10 μM; for Dmax: read-out: Dmax (%) maximum degradation observed
Protocol: as §1, §2, §3, §4

Brd4 (S) [4] = target: T2, Brd4 (S); assay: as above; details: 6 h treatment, 1 nM-10 μM; for Dmax: read-out: Dmax (%) maximum degradation observed
Protocol: as §1, §2, §3, §4

MV4-11 cells = assay: Anti-proliferative effect, CellTiter-Glo assay; details: MV4-11, CellTiter-Glo, 72 h incubation, 5 μM and below
Protocol: The anti-proliferative effects of representative compounds were measured using the CellTiter-Glo assay (Promega). MV4-11 cells were incubated in a sterile, white, clear-bottomed 384-well cell-culture microplate (Greiner Bio-one), at 2× concentration in RPMI media and a volume of 25 μl. The next day, test compounds were serially diluted in RPMI media to 2× concentration, then added to cells to make a final volume of 50 μl. After a 72 h incubation 25 μl of CellTiter-Glo reagent was added to each well. Following 15 minute incubation the luminescence signal was read on a Pherastar FS. The final concentration of assay components are as follows: 3×10^5 cells/mL, 0.05% DMSO, 5 μM and below compound. Data (FIG. 11) was processed and dose-response curves generated using Prism 8 (Graphpad).

Brd3, sequence (Q15059 whole entry): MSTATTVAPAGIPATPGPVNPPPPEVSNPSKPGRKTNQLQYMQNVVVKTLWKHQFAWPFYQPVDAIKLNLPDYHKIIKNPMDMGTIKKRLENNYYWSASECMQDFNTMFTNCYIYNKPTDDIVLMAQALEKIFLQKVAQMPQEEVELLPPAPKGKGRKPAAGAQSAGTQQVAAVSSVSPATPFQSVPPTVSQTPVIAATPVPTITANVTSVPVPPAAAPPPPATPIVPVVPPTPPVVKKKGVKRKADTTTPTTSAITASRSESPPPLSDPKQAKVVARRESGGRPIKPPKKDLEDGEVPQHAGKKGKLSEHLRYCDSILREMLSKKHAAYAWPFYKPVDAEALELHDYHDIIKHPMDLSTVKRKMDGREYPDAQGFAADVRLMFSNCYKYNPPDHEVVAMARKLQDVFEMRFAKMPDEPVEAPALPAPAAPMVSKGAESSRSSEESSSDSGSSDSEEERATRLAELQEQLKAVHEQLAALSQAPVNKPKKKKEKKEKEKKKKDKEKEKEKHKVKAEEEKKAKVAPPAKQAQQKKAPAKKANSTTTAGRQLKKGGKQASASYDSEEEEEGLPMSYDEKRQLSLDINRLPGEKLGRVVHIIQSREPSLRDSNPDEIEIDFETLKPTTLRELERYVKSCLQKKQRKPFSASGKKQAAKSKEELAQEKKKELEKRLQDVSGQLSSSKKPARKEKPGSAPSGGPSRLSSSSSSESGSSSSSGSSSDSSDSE
Brd2, sequence (P25440 whole entry): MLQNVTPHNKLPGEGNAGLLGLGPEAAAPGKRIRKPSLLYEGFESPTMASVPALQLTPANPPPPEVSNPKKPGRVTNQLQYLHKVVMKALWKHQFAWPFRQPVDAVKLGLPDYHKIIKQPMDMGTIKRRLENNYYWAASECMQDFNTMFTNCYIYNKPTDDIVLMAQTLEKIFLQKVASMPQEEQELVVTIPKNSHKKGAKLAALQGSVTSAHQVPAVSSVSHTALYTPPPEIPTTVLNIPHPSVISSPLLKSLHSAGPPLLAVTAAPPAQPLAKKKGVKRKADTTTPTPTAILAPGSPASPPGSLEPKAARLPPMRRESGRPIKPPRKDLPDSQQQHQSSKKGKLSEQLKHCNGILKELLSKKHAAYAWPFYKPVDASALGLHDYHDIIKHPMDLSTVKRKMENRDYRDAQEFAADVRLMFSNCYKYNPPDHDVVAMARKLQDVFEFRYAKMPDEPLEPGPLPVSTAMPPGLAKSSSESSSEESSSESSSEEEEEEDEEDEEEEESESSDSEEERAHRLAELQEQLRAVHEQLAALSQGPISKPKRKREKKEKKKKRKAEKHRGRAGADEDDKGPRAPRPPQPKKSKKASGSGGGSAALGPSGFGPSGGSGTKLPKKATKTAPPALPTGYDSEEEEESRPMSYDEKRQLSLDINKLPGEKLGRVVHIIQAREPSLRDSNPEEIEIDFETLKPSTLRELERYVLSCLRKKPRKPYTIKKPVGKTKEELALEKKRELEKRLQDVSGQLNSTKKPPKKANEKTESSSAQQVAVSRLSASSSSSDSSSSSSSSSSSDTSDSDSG

| SMILES | DC50 (Brd2) [nM] | Dmax (Brd2) [%] | DC50 (Brd3) [nM] | Dmax (Brd3) [%] | Dmax (Brd4 (L) [1]) [%] | Dmax (Brd4 (S) [2]) [%] | DC50 (Brd4 (L) [3]) [nM] | Dmax (Brd4 (L) [3]) [%] | DC50 (Brd4 (S) [4]) [nM] | Dmax (Brd4 (S) [4]) [%] | cytotoxicity profile (anti-proliferative effect) (MV4-11 cells) |
| --- | --- | --- | --- | --- | --- | --- | --- | --- | --- | --- | --- |
| CCCC(NC(=O)/C(C#N)=C/c1cccc(Br)n1)c1ccc(OCC=NOCC(=O)NCCOCCOCCOCCOCCOCCNC(=O)c2ccc3c(c2)[C@H](Nc2ccc(Cl)cc2)C[C@H](C)N3C(C)=O)cc1 (stereo partly drawn) [Example 05IB3] | 51 to 500 | ≥ 71 | 51 to 500 | ≥ 71 | 96 | 100 | ≤ 50 | ≥ 71 | ≤ 50 | ≥ 71 | distinct from I-BET726 and inactive 05IB11 |
| CCCC(NC(=O)/C(C#N)=C/c1cccc(Br)n1)c1ccc(OCCOCCOCCOCCOCCOCCOCCNC(=O)c2ccc(-c3ccc4c(c3)[C@H](Nc3ccc(Cl)cc3)C[C@H](C)N4C(C)=O)cc2)cc1 (stereo partly drawn) [Example 05IB6] | ≤ 50 | ≥ 71 | ≤ 50 | ≥ 71 | 100 | 97 | ≤ 50 | ≥ 71 | ≤ 50 | ≥ 71 | distinct from I-BET726 and inactive 05IB11 |
| CCCC(NC(=O)/C(C#N)=C/c1nccs1)c1ccc(OCCOCCOCCOCCOCCOCCOCCNC(=O)c2ccc(-c3ccc4c(c3)[C@H](Nc3ccc(Cl)cc3)C[C@H](C)N4C(C)=O)cc2)cc1 (stereo partly drawn) [Example 05IB9] | 51 to 500 | ≥ 71 | ≤ 50 | 51 to 70 | 96 | 96 | ≤ 50 | ≥ 71 | ≤ 50 | ≥ 71 | distinct from I-BET726 and inactive 05IB11 |
